From patent US20250170124A1, “METHODS OF DIAGNOSING AND TREATING NEURODEGENERATIVE DISEASES” (The General Hospital Corporation, priority 2022, published 2025)
Like-named read-outs stand apart in the source and are kept apart here.

Assays:
[1] = tested on: PrP-5′UTR (prion protein IRE); assay type: cell-based, human; conditions: versus SNCA 5′UTR
alpha-synuclein = experiment: ELISA secondary screen for alpha-synuclein in SH-SY5Y cells; assay type: cell-based, human; set-up: Decrease syn(%) SHSY5Y cells: unit of the concentration uncertain; conditions: for Decrease αsyn(%) SHSY5Y cells: Table 2; for Decrease syn(%) SHSY5Y cells: Table 3
Experimental: FIG. 2 illustrates the results of ELISA experiments with compound 10 in SH-SY5Y cells. […]
FIG. 18 illustrates alpha Synuclein ELISA (Invitrogen) measurements from SHSY5 undifferentiated neurons treated with the indicated doses (triplicate wells) of compounds 2, 13, 11, 14, 15, and 16) for 48 h.
A human ASYN ELISA kit was utilized for all ELISA experiments (Invitrogen alpha-synuclein ELISA kit KHB0061) and the kit protocol was followed.
1) Plate SH-SY5Y […] cells (Corning, 3570) at 10,000 cells/well in 50 μL phenol red free media (phenol red-free DMEM with 4.5 g/L D-glucose [Lonza, 12-917F] supplemented with 10% FBS [Lonza, 14-503E], 200 μM L-glutamine [Lonza, 17-605E], 100 μM penstrep [Lonza, 17-602E] and 200 μg/mL geneticin [Invitrogen, 10131-027]).
2) Lid plates, then incubate cells for 24 hours at 37° C., 5% CO2, 95% humidity in a tissue culture incubator.
3) Pin 100 nL of each compound into the assay plates spanning a final concentration range from 100-0.006 μM.
4) Incubate plates for 48 h at 37° C., 5% CO2, 95% humidity. Following incubation, add 5 μL of Alamar blue solution per well and allow to incubate for 1 h at 37° C., 5% CO2, 95% humidity.
5) Read Alamar blue fluorescence using a Thermo Varioskan (570 nm excitation, 585 nm emission). Remove cell media and add 30 μL cell lysis solution with protease inhibitor (G Biosciences, 786-331; 10 μL/mL).
6) Place plates on a plate shaker for 1 h, before removing 20 μL lysate. Transfer cell lysates to 500 μL Eppendorf tubes and centrifuge (Eppendorf Centrifuge 5417C) for 10 min at 13,000 rpm.
7) Add 12 μL of the cell supernatant to 48 μL of standard diluent buffer (1:5). Add these samples to ELISA plate wells. Prepare ASYN standard curve wells as described in the kit manual.
8) Add 50 μL of anti-α-Synuclein (Detection Antibody) solution to each well, tapping the plate to mix. Cover the plate with a tape seal and incubate for 3 h at RT.
9) Wash wells four times with wash buffer using a multichannel pipette and add 100 μL of anti-rabbit IgG-HRP antibody solution to each well. Cover the plate and incubate for 30 min at RT. Wash wells four times with wash buffer and add 100 μL of Stabilized Chromogen to each well. Seal the plate and incubate in the dark at RT for 30 min.
10) Finally, add 100 μL of Stop Solution to each well, tapping the plate to mix, and read absorbance at 450 nm using an Envision plate reader (Perkin Elmer).

[2] = tested on: alpha-synuclein 5′-UTR IRE (SNCA 5′UTR); experiment: Primary screen/retest: ASYN 5′-UTR IRE-driven luciferase expression in H4 cells; assay type: cell-based, human; conditions: Homo sapiens, H4 cells, luciferase, 48 h
PGL3 5′UTR = experiment: Secondary (counterscreen) luciferase assay in H4-C cells, IRE stem-loop removed; assay type: cell-based, human; conditions: versus SNCA 5′UTR
SNCA IRE = experiment: Spinach fluorescent assay, SNCA IRE fluorescence sensor R7
[3] = Table 2, read-out: IC50/μM (SNCA 5′UTR)
[4] = Table 3, read-out: IC50/M (SNCA 5′UTR)

O=C(c1ccc(C[S+]([O-])c2ccccc2Cl)o1)N1CCN(c2ccccc2)CC1 (stereo not drawn) [Compound 6, (5-(((2-chlorophenyl)sulfinyl)methyl)furan-2-yl)(4-phenylpiperazin-1-yl)methanone]
Selectivity PrP-5′UTR ([1]; Table 2): Inc.
Decrease αsyn(%) SHSY5Y cells (alpha-synuclein; @ 0.1-1 μM): 21-42 @ 0.1-1%
IC50 [2, 3]: 0.1 µM
Selectivity PGL3 5′UTR (PGL3 5′UTR; Table 2): 80-fold

COc1ccc(/C=C/C(=O)c2cc(F)ccc2OC(=O)c2ccccc2)cc1OC [Compound 5, (E)-2-(3-(3,4-dimethoxyphenyl)acryloyl)-4-fluorophenyl benzoate]
Selectivity PrP-5′UTR ([1]; Table 2): Inc.
Decrease αsyn(%) SHSY5Y cells (alpha-synuclein; @ 0.1 μM): 20-50 @ 0.1%
IC50 [2, 3]: 0.194 µM
Selectivity PGL3 5′UTR (PGL3 5′UTR; Table 2): 66-fold

COc1cccc(N2CCN(C(=O)c3ccc(C[S+]([O-])c4ccc(C)cc4)o3)CC2)c1 (stereo not drawn) [Compound 1, (4-(3-methoxyphenyl)piperazin-1-yl)(5-((p-tolylsulfinyl)methyl)furan-2-yl)methanone]
Selectivity PrP-5′UTR ([1]; Table 2): 126-fold
Decrease αsyn(%) SHSY5Y cells (alpha-synuclein; @ 1 μM): 14-28 @ 1%
IC50 [2, 3]: 0.1 µM
Selectivity PGL3 5′UTR (PGL3 5′UTR; Table 2): 58-fold

CCC1=Nc2cc(C(=O)NCCCOC)ccc2Sc2ccccc21 [Compound 16, 11-ethyl-N˜8˜-(3-methoxypropyl)dibenzo[b,f][1,4]thiazepine-8-carboxamide]
Selectivity PrP-5′UTR ([1]; Table 3): 127-fold
Decrease syn(%) SHSY5Y cells (alpha-synuclein; @ 1 µM): 30-60 @ 1M^ %
IC50 [2, 4]: 0.127 µM
Selectivity PGL3 5′UTR (PGL3 5′UTR; Table 3): 68-fold

COc1ccc(/C=C/C(=O)c2cc(F)ccc2OC(=O)c2ccccc2)cc1OC [Compound 14, 2-[(2E)-3-(3,4-dimethoxyphenyl)prop-2-enoyl]-4-fluorophenyl benzoate]
Selectivity PrP-5′UTR ([1]; Table 3): Inc.
Decrease syn(%) SHSY5Y cells (alpha-synuclein; @ 0.1 µM): 20-50 @ 0.1M %
IC50 [2, 4]: 0.194 µM
Selectivity PGL3 5′UTR (PGL3 5′UTR; Table 3): 66-fold

CCC1=Nc2cc(C(=O)NCCCOC)ccc2Sc2ccccc21 [Compound 7, 11-ethyl-N-(3-methoxypropyl)dibenzo[b,f][1,4]thiazepine-8-carboxamide]
Selectivity PrP-5′UTR ([1]; Table 2): 127-fold
Decrease αsyn(%) SHSY5Y cells (alpha-synuclein; @ 1 μM): 30-60 @ 1%
IC50 [2, 3]: 0.127 µM
Selectivity PGL3 5′UTR (PGL3 5′UTR; Table 2): 68-fold

Cc1cc(C)cc(Nc2nc3ccc(C)cc3n3cnnc23)c1 [Compound 15, N-(3,5-dimethylphenyl)-8-methyl[1,2,4]triazolo[4,3-a]quinoxalin-4-amine]
Selectivity PrP-5′UTR ([1]; Table 3): 18-fold
Decrease syn(%) SHSY5Y cells (alpha-synuclein; @ 1 µM): 25-50 @ 1M^ %
IC50 [2, 4]: 2.8 µM
Selectivity PGL3 5′UTR (PGL3 5′UTR; Table 3): 43-fold

COc1cccc(N2CCN(C(=O)c3ccc(C[S+]([O-])c4ccc(C)cc4)o3)CC2)c1 (stereo not drawn) [Compound 11, 1-(3-Methoxyphenyl)-4-(5-{[(4-methylphenyl)sulfinyl]methyl}-2-furoyl)piperazine]
Selectivity PrP-5′UTR ([1]; Table 3): 126-fold
Decrease syn(%) SHSY5Y cells (alpha-synuclein; @ 1 µM): 14-28 @ 1M^ %
binding to SNCA IRE (fluorescence of sensor R7) (SNCA IRE): binds strongly
IC50 [2, 4]: 0.1 µM
Selectivity PGL3 5′UTR (PGL3 5′UTR; Table 3): 58-fold
